Active and inactive are the calls of the source. The calls are words filed in the database; no cut-off is given here.
Legend:
Mus musculus [1] = test: Antinociceptive activity in Kun Ming mouse assessed as reduction in paw licking and flinching time at 40 mg/kg, ip administered 15 mins prior to formalin challenge measured after 0 to 10 mins post formalin dosing relative to vehicle-treated control; type: functional, organism-based
[2] = Mean residence time in Kun Ming mouse brain at 40 mg/kg, po by LC-MS/MS analysis; type: ADME, organism-based
[3] = Mean residence time in Kun Ming mouse plasma at 40 mg/kg, po by LC-MS/MS analysis; type: ADME, organism-based
[4] = AUC (0 to 8 hrs) in Kun Ming mouse brain at 40 mg/kg, po by LC-MS/MS analysis; type: ADME, organism-based; set-up: time < 8 hr, dose 40 mg/kg, route oral; details: in vivo
[5] = molecular target: T1, Sodium-dependent dopamine transporter (Homo sapiens, UniProt Q01959)
T1 sequence (Q01959 whole entry): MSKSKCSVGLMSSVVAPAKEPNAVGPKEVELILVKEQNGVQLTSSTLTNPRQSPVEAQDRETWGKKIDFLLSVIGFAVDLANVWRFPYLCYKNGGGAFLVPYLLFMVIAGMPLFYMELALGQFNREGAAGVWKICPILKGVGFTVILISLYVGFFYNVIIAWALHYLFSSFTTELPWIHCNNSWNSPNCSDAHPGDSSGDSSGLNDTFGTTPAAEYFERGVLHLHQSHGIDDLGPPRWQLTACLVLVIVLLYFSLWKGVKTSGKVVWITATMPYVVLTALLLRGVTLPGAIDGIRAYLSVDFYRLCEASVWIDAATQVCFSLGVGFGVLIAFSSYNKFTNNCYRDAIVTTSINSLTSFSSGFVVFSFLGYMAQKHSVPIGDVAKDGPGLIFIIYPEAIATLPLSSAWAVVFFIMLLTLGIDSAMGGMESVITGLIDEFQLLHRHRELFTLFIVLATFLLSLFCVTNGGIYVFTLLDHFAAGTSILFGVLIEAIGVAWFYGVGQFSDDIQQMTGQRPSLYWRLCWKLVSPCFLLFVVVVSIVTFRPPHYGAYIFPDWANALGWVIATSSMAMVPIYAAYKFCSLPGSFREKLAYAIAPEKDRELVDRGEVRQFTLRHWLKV
Description: Displacement of [3H]-WIN35428 from human DAT expressed in HEK293 cells measured after 30 mins

[6] = molecular target: T2, Sigma intracellular receptor 2 (Rattus norvegicus, UniProt Q5U3Y7); test: Displacement of [3H]DTG from rat brain sigma2 receptor by PDSP assay
T2 sequence (Q5U3Y7 whole entry): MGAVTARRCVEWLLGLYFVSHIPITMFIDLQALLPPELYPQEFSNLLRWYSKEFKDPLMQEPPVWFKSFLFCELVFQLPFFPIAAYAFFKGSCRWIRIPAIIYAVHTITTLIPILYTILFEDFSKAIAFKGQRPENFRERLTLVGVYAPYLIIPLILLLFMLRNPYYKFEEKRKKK

[7] = molecular target: Sodium-dependent noradrenaline transporter (Homo sapiens, UniProt P23975); test: Displacement of [3H]nisoxetine from human NET expressed in HEK293 cells measured after 30 mins; type: cell-based
Chain of Sodium-dependent noradrenaline transporter (P23975 whole entry): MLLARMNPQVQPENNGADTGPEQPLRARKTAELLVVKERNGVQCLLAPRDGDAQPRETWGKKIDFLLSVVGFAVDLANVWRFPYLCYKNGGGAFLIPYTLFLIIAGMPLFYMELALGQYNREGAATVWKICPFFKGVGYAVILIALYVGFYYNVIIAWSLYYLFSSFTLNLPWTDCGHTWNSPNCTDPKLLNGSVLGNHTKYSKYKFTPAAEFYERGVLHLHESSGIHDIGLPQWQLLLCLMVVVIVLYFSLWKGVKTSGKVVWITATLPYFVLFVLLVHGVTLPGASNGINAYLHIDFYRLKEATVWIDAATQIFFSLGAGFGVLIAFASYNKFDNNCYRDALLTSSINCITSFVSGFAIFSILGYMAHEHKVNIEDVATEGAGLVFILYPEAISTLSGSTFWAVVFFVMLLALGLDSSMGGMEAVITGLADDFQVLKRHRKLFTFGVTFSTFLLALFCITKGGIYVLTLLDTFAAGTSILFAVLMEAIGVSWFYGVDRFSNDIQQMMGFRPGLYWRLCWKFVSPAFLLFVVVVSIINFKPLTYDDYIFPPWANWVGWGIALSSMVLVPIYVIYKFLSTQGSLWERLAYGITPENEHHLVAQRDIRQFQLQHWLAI

[8] = Tmax in Kun Ming mouse brain at 40 mg/kg, po by LC-MS/MS analysis; type: ADME, organism-based
[9] = Elimination rate constant in Kun Ming mouse plasma at 40 mg/kg, po by LC-MS/MS analysis; type: ADME, organism-based
[10] = Half life in Kun Ming mouse plasma at 40 mg/kg, po by LC-MS/MS analysis; type: ADME, organism-based
[11] = molecular target: Sigma non-opioid intracellular receptor 1 (Rattus norvegicus, UniProt Q9R0C9); test: Displacement of [3H]-pentazocine from rat brain sigma1 receptor by PDSP assay
Chain of Sigma non-opioid intracellular receptor 1 (Q9R0C9 whole entry): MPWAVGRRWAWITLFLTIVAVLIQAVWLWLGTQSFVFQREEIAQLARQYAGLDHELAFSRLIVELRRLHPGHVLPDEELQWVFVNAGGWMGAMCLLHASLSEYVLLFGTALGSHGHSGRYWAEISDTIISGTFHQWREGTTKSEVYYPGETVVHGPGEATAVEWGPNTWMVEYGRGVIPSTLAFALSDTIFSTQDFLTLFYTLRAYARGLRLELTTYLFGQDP

[12] = Elimination rate constant in Kun Ming mouse brain at 40 mg/kg, po by LC-MS/MS analysis; type: ADME, organism-based
[13] = molecular target: T3, Sodium-dependent serotonin transporter (Homo sapiens, UniProt P31645); test: biochemical; type: cell-based, HEK293
Target sequence in this assay (P31645 whole entry): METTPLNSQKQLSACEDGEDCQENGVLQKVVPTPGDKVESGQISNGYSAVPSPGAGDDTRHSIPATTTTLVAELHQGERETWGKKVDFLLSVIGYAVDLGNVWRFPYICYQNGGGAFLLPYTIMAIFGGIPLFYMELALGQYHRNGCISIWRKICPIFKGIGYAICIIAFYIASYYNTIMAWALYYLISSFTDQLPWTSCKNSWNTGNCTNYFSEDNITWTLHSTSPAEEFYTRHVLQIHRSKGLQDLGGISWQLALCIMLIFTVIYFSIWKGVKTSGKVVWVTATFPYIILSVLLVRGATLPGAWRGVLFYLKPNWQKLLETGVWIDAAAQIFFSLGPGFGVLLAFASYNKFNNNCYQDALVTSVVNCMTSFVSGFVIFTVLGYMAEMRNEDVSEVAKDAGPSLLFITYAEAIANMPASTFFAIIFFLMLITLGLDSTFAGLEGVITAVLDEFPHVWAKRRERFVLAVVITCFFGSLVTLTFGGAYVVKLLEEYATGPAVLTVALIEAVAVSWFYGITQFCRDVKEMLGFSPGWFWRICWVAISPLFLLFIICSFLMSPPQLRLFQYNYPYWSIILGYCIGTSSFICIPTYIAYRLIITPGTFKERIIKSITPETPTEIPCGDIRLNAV
Description: Displacement of [3H]citalopram from human SERT expressed in HEK293 cells measured after 30 mins

[14] = molecular target: T1, Sodium-dependent dopamine transporter; test: Displacement of [3H]-WIN35428 from human DAT expressed in HEK293 cells at 10 uM measured after 30 mins; type: cell-based
[15] = Half life in Kun Ming mouse brain at 40 mg/kg, po by LC-MS/MS analysis; type: ADME, organism-based
[16] = Tmax in Kun Ming mouse plasma at 40 mg/kg, po by LC-MS/MS analysis; type: ADME, organism-based
[17] = Ratio of AUC (0 to infinity) in brain to plasma of Kun Ming mouse at 40 mg/kg, po; type: ADME, organism-based; details: read-out: Ratio AUC
[18] = Cmax in Kun Ming mouse brain at 40 mg/kg, po by LC-MS/MS analysis; type: ADME, organism-based; set-up: dose 40 mg/kg, route oral
[19] = AUMC (0 to infinity) in Kun Ming mouse plasma at 40 mg/kg, po by LC-MS/MS analysis; type: ADME, organism-based; details: in vivo
[20] = Ratio of AUC (0 to 8 hrs) in brain to plasma of Kun Ming mouse at 40 mg/kg, po; type: ADME, organism-based; details: read-out: Ratio AUC
[21] = Permeability of the compound after 18 hrs by PAMPA assay; type: ADME; details: read-out: permeability
Mus musculus [22] = test: Antinociceptive activity in Kun Ming mouse assessed as reduction in paw licking and flinching time at 80 mg/kg, ip administered 15 mins prior to formalin challenge measured up to 45 mins post formalin dosing relative to vehicle-treated control; type: functional, organism-based
[23] = AUC (0 to infinity) in Kun Ming mouse brain at 40 mg/kg, po by LC-MS/MS analysis; type: ADME, organism-based; set-up: dose 40 mg/kg, route oral, time infinity; details: in vivo
[24] = AUMC (0 to infinity) in Kun Ming mouse brain at 40 mg/kg, po by LC-MS/MS analysis; type: ADME, organism-based; details: in vivo
[25] = AUC (0 to infinity) in Kun Ming mouse plasma at 40 mg/kg, po by LC-MS/MS analysis; type: ADME, organism-based; set-up: dose 40 mg/kg, route oral, time infinity
[26] = AUC (0 to 8 hrs) in Kun Ming mouse plasma at 40 mg/kg, po by LC-MS/MS analysis; type: ADME, organism-based; set-up: time < 8 hr, dose 40 mg/kg, route oral
[27] = molecular target: Sigma non-opioid intracellular receptor 1 (Cavia porcellus) (UniProt Q60492); test: Binding affinity to sigma1 receptor form guinea pig brain membrane in presence of phenytoin […]
Chain of Sigma non-opioid intracellular receptor 1 (Cavia porcellus) (Q60492 whole entry): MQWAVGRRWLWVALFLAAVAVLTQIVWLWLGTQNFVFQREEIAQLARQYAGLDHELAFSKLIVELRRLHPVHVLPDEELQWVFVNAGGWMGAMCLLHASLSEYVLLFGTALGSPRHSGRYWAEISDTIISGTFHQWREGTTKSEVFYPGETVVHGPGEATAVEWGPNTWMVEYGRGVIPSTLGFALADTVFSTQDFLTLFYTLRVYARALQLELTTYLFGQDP

[28] = molecular target: Sigma non-opioid intracellular receptor 1 (Rattus norvegicus) (UniProt Q9R0C9); test: Displacement of [3H]-pentazocine from rat brain sigma1 receptor at 10 uM by PDSP assay
Chain of Sigma non-opioid intracellular receptor 1 (Rattus norvegicus) (Q9R0C9 whole entry): as the sequence (Q9R0C9 whole entry) above

[29] = Toxicity in Kun Ming mouse assessed as decrease in rotarod latency at 40 and 80 mg/kg, ip measured after 60 to 120 mins by rotarod test relative to vehicle-treated control; type: organism-based; details: in vivo
[30] = AUMC (0 to 8 hrs) in Kun Ming mouse plasma at 40 mg/kg, po by LC-MS/MS analysis; type: ADME, organism-based; details: in vivo
[31] = AUMC (0 to 8 hrs) in Kun Ming mouse brain at 40 mg/kg, po by LC-MS/MS analysis; type: ADME, organism-based; details: in vivo
[32] = molecular target: T3, Sodium-dependent serotonin transporter; details: HEK293, at 10 µM
Target sequence in this assay (P31645 whole entry, looked up): as the sequence (P31645 whole entry) above
Description: Displacement of [3H]citalopram from human SERT expressed in HEK293 cells at 10 uM measured after 30 mins

[33] = Cmax in Kun Ming mouse plasma at 40 mg/kg, po by LC-MS/MS analysis; type: ADME, organism-based; set-up: dose 40 mg/kg, route oral
[34] = Ratio of Cmax in brain to plasma of Kun Ming mouse at 40 mg/kg, po; type: ADME, organism-based
Mus musculus [35] = test: Antinociceptive activity in Kun Ming mouse assessed as reduction in paw licking and flinching time at 40 mg/kg, ip administered 15 mins prior to formalin challenge measured after 11 to 45 mins post formalin dosing relative to vehicle-treated control; type: functional, organism-based

For `CN(CCOc1cc(COc2ccccc2)on1)CC1CC1.Cl`, the Activity (Mus musculus [1]) was “inactive”, the MRT [2] was 2.32 h and the MRT [3] was 1.39 h. The AUC [4] was 373 ng·h/g, the Ki [5] was greater than 10000 nM and the Ki [6] was 225 nM. It also gave a Ki [7] greater than 10000 nM, a Tmax [8] of 0.167 h and a k el [9] of 7.31e-05 s⁻¹. For the same compound, the half-life [10] was 2.64 h, the Ki [11] was 0.8 nM and the k el [12] was 7.67e-05 s⁻¹. For the same compound, the Ki [13] was greater than 10000 nM, the inhibition [14] was less than 50% and the half-life [15] was 2.52 h. It also gave a Tmax [16] of 0.167 h, a Kp [17] of 3.6 and a Cmax [18] of 395 ng/g. For the same compound, the AUMC [19] was 157 hr.hr.ng/ml, the Kp [20] was 3.6 and the Papp at 18 h [21] was 2 to 4 ×10⁻⁶ cm/s. For the same compound, the Activity (Mus musculus [22]) was “Active”, the AUC [23] was 403 ng·h/g and the AUMC [24] was 935 hr.hr.ng/g. For the same compound, the AUC(0-inf) [25] was 113 ng·h/mL, the AUC(0-t) at 8 h [26] was 108 ng·h/mL and the Activity [27] was “inactive”. For the same compound, the inhibition [28] was greater than 50%, the Activity [29] was “Non-Toxic” and the AUMC [30] was 91.5 hr.hr.ng/ml. The AUMC [31] was 578 hr.hr.ng/g, the inhibition [32] was less than 50% and the Cmax [33] was 193 ng/mL. For the same compound, the Kp [34] was 2 and the Activity (Mus musculus [35]) was “Active”.
